In the SangsterLogP compilation one finds logD data, which are given here for 14 molecules.

A short description of this data set: method code SF-AS, from DOI: 10.1248/cpb.22.2064. The note with it: pH 7.4.

Turning to `Cc1c(N2CCCC2)c(=O)n(C)c(=O)n1-c1ccccc1`, the logD (usually lipophilicity at a set pH, counting ionised and neutral species) worked out at 2.68.

Turning to `Cc1c(N(C)C)c(=O)n(Cc2ccccc2)c(=O)n1C`, the logD was 2.47.

The molecule `Cc1c(N2CCCCC2)c(=O)n(-c2ccccc2)c(=O)n1-c1ccccc1` gave a logD of 3.24.

With `Cc1c(N2CCCCC2)c(=O)n(C)c(=O)n1C1CCCCC1`, the logD amounted to 3.68.

For `Cc1c(N2CCOCC2)c(=O)n(-c2ccccc2)c(=O)n1C1CCCCC1`, the logD was 2.37.

Molecule `Cc1c(N(C)C)c(=O)n(C2CCCC2)c(=O)n1C` had a logD of 2.65.

`Cc1c(NCC(C)C)c(=O)n(-c2ccccc2)c(=O)n1C1CCCCC1` registered a logD of 3.27.

`Cc1c(N2CCCCC2)c(=O)n(C)c(=O)n1-c1ccccc1` returned a logD of 3.21.

`Cc1c(NCC(C)C)c(=O)n(-c2ccccc2)c(=O)n1-c1ccccc1` showed a logD of 2.4.

Turning to `Cc1c(N2CCCC2)c(=O)n(C)c(=O)n1C1CCCCC1`, the logD came out at 3.55.

`Cc1c(N(C)C)c(=O)n(C2CCCCC2)c(=O)n1C`: the logD turned out to be 3.02.

On to `Cc1c(N(C)C)c(=O)n(C)c(=O)n1C1CCCCC1`, for which the logD was 2.94.

For the molecule `Cc1c(N(C)C)c(=O)[nH]c(=O)n1C1CCCCC1`, the logD is 2.53.

Regarding `Cc1c(N2CCOCC2)c(=O)n(-c2ccccc2)c(=O)n1-c1ccccc1`, the logD amounted to 1.44.
